Measurements: the NIST ThermoML archive (doi:10.1016/j.jct.2005.01.009)
± gives the expanded uncertainty stated by the source.

Experiment: mn = molality of the nth substance listed, in mol/kg
Conditions: 101 kPa, Liquid; for speed of sound: Linear variable-path acoustic interferometer

CCCCn1cc[n+](C)c1.[Br-] [1-butyl-3-methylimidazolium bromide] + O
Conditions	mass density, 298.15 K [kg/m3]	mass density, 303.15 K [kg/m3]	mass density, 308.15 K [kg/m3]	mass density, 313.15 K [kg/m3]	mass density, 318.15 K [kg/m3]	speed of sound, 298.15 K [m/s]	speed of sound, 303.15 K [m/s]	speed of sound, 308.15 K [m/s]	speed of sound, 313.15 K [m/s]	speed of sound, 318.15 K [m/s]
m1 = 0.0692	1000.44 ± 0.65	999.001 ± 0.65	997.35 ± 0.67	995.472 ± 0.68	993.421 ± 0.7	1504 ± 1.6	1515.9 ± 1.6	1526 ± 1.6	1534.6 ± 1.6	1541.9 ± 1.6
m1 = 0.1376	1003.7 ± 0.68	1002.2 ± 0.66	1000.49 ± 0.65	998.581 ± 0.66	996.491 ± 0.68	1511.3 ± 1.6	1522.7 ± 1.6	1532.3 ± 1.6	1540.4 ± 1.6	1546.9 ± 1.6
m1 = 0.2697	1009.85 ± 0.73	1008.28 ± 0.72	1006.54 ± 0.7	1004.6 ± 0.69	1002.47 ± 0.67	1523.1 ± 1.6	1533.3 ± 1.6	1541.9 ± 1.6	1549.1 ± 1.6	1555 ± 1.6
m1 = 0.6117	1024.93 ± 0.86	1023.15 ± 0.84	1021.17 ± 0.83	1019.01 ± 0.81	1016.68 ± 0.79	1552.2 ± 1.6	1561.7 ± 1.6	1568.7 ± 1.6	1573.8 ± 1.6	1577 ± 1.6
m1 = 1.28	1050.92 ± 1.1	1048.78 ± 1.1	1046.56 ± 1.1	1044.14 ± 1	1041.59 ± 1	1600.3 ± 1.7	1603.5 ± 1.7	1605.6 ± 1.7	1606.7 ± 1.7	1606.9 ± 1.7
m1 = 2.133	1078.26 ± 1.3	1075.78 ± 1.3	1073.14 ± 1.3	1070.42 ± 1.3	1067.58 ± 1.2	1645.9 ± 1.8	1644.9 ± 1.8	1644.1 ± 1.8	1640.6 ± 1.8	1637.5 ± 1.8
m1 = 3.115	1103.8 ± 1.6	1100.98 ± 1.5	1098.05 ± 1.5	1095.04 ± 1.5	1091.93 ± 1.5	1682.7 ± 1.9	1678.3 ± 1.9	1673.3 ± 1.9	1667.9 ± 1.9	1662 ± 1.9
m1 = 5.187	1143.52 ± 1.9	1140.26 ± 1.9	1136.94 ± 1.9	1133.57 ± 1.8	1130.13 ± 1.8	1724.2 ± 2	1716 ± 2	1707.4 ± 2	1698.6 ± 2	1689.6 ± 2.1
m1 = 7.792	1176.05 ± 2.2	1172.57 ± 2.2	1169.05 ± 2.1	1165.49 ± 2.1	1161.9 ± 2.1	1741.2 ± 2.2	1731.4 ± 2.2	1721.3 ± 2.2	1711 ± 2.2	1700.5 ± 2.2

CCCCn1cc[n+](C)c1.[Br-] [1-butyl-3-methylimidazolium bromide] + CCO
Conditions	mass density, 298.15 K [kg/m3]	mass density, 303.15 K [kg/m3]	mass density, 308.15 K [kg/m3]	mass density, 313.15 K [kg/m3]	mass density, 318.15 K [kg/m3]	speed of sound, 298.15 K [m/s]	speed of sound, 303.15 K [m/s]	speed of sound, 308.15 K [m/s]	speed of sound, 313.15 K [m/s]	speed of sound, 318.15 K [m/s]
m1 = 0.0271	787.221 ± 2.4	782.917 ± 2.4	778.581 ± 2.4	774.206 ± 2.5	769.798 ± 2.5	1145.2 ± 1.3	1128.3 ± 1.3	1111.6 ± 1.3	1094.9 ± 1.3	1078.3 ± 1.3
m1 = 0.0587	789.649 ± 2.3	785.356 ± 2.4	781.029 ± 2.4	776.665 ± 2.4	772.267 ± 2.5	1147.3 ± 1.3	1130.5 ± 1.3	1113.8 ± 1.3	1097.1 ± 1.3	1080.6 ± 1.3
m1 = 0.0846	791.567 ± 2.3	787.288 ± 2.4	782.969 ± 2.4	778.613 ± 2.4	774.213 ± 2.5	1148.6 ± 1.3	1131.9 ± 1.3	1115.3 ± 1.3	1098.6 ± 1.3	1082.1 ± 1.3
m1 = 0.1257	794.595 ± 2.3	790.319 ± 2.3	786.01 ± 2.4	781.663 ± 2.4	777.288 ± 2.4	1150.8 ± 1.4	1134 ± 1.3	1117.4 ± 1.3	1101 ± 1.3	1084.5 ± 1.3
m1 = 0.1587	796.91 ± 2.3	792.647 ± 2.3	788.343 ± 2.4	784.006 ± 2.4	779.628 ± 2.4	1152.7 ± 1.4	1136.1 ± 1.3	1119.4 ± 1.3	1103 ± 1.3	1086.5 ± 1.3
m1 = 0.2261	801.67 ± 2.2	797.404 ± 2.3	793.117 ± 2.3	788.795 ± 2.4	784.413 ± 2.4	1155.8 ± 1.4	1139.7 ± 1.3	1123.2 ± 1.3	1106.8 ± 1.3	1090.5 ± 1.3
m1 = 0.3162	807.896 ± 2.2	803.664 ± 2.2	799.393 ± 2.3	795.091 ± 2.3	790.753 ± 2.3	1160.7 ± 1.4	1144.3 ± 1.4	1128 ± 1.3	1111.7 ± 1.3	1095.4 ± 1.3

CCCCn1cc[n+](C)c1.[Br-] [1-butyl-3-methylimidazolium bromide] + CO
Conditions	mass density, 298.15 K [kg/m3]	mass density, 303.15 K [kg/m3]	mass density, 308.15 K [kg/m3]	mass density, 313.15 K [kg/m3]	mass density, 318.15 K [kg/m3]	speed of sound, 298.15 K [m/s]	speed of sound, 303.15 K [m/s]	speed of sound, 308.15 K [m/s]	speed of sound, 313.15 K [m/s]	speed of sound, 318.15 K [m/s]
m1 = 0.0473	790.393 ± 2.3	785.688 ± 2.4	780.958 ± 2.4	776.204 ± 2.5	771.426 ± 2.5	–	1090.5 ± 1.3	1074.3 ± 1.3	1058.2 ± 1.2	1042.3 ± 1.2
m1 = 0.0767	792.789 ± 2.3	788.091 ± 2.4	783.371 ± 2.4	778.627 ± 2.4	773.86 ± 2.5	–	1092.6 ± 1.3	1076.5 ± 1.3	1060.5 ± 1.3	1044.7 ± 1.2
m1 = 0.1497	798.175 ± 2.3	793.495 ± 2.3	788.794 ± 2.3	784.073 ± 2.4	779.323 ± 2.4	1114.1 ± 1.3	1098 ± 1.3	1081.9 ± 1.3	1066 ± 1.3	1050.2 ± 1.2
m1 = 0.2612	806.303 ± 2.2	801.654 ± 2.2	796.988 ± 2.3	792.294 ± 2.3	787.582 ± 2.4	1121.7 ± 1.3	1105.7 ± 1.3	1089.7 ± 1.3	1073.9 ± 1.3	1058.2 ± 1.3
m1 = 0.3434	812.207 ± 2.2	807.572 ± 2.2	802.921 ± 2.2	798.249 ± 2.3	793.553 ± 2.3	1127.1 ± 1.3	1111.1 ± 1.3	1095.2 ± 1.3	1079.4 ± 1.3	1063.8 ± 1.3
m1 = 0.4912	822.389 ± 2.1	817.794 ± 2.1	813.177 ± 2.2	808.542 ± 2.2	803.883 ± 2.2	1136.4 ± 1.3	1120.6 ± 1.3	1104.8 ± 1.3	1089.2 ± 1.3	1073.8 ± 1.3
m1 = 0.7273	837.955 ± 2	833.402 ± 2	828.837 ± 2	824.253 ± 2.1	819.66 ± 2.1	1151 ± 1.4	1135.4 ± 1.4	1119.9 ± 1.3	1104.5 ± 1.3	1089.2 ± 1.3
m1 = 0.9756	852.578 ± 1.8	848.25 ± 1.9	843.727 ± 1.9	839.188 ± 1.9	834.634 ± 2	1164.1 ± 1.4	1148.7 ± 1.4	1133.4 ± 1.4	1118.2 ± 1.4	1103.1 ± 1.4
m1 = 1.405	876.422 ± 1.7	871.97 ± 1.7	867.512 ± 1.7	863.046 ± 1.8	858.563 ± 1.8	1186.2 ± 1.4	1171 ± 1.4	1156 ± 1.4	1141 ± 1.4	1126.3 ± 1.4
m1 = 2.446	924.879 ± 1.3	920.559 ± 1.3	916.245 ± 1.4	911.924 ± 1.4	907.596 ± 1.4	1233.3 ± 1.6	1218.8 ± 1.6	1204.4 ± 1.6	1190.1 ± 1.5	1175.9 ± 1.6
m1 = 3.896	976.589 ± 0.96	972.412 ± 0.99	968.238 ± 1	964.059 ± 1	959.889 ± 1.1	1287.4 ± 1.7	1273.5 ± 1.7	1259.7 ± 1.7	1246 ± 1.7	1232.5 ± 1.7
